In US7687547B2, “Diphenyl ether antimicrobial compounds” (Research Foundation of State University of New York, priority 2004, dated 2010):
Values after ≈ are worked out from the molar mass of the structure shown. Like-named read-outs stand apart in the source and are kept apart here.

Legend:
InhA = InhA (Mycobacterium tuberculosis, UniProt P9WGR1); assay: InhA enzyme inhibition IC50 (NADH oxidation at 340 nm, DD-CoA substrate); format: biochemical, M. tuberculosis
Procedure: IC50 values were determined by measuring the enzyme activity at different inhibitor concentrations. The experimental data were analyzed using Equation 1, where I is the inhibitor concentration and Y is fraction activity. Y=1/(1+[I]/IC50) (1)
All experiments were carried out on a CARY-100 Bio (Varian) spectrophotometer at 25° C. The buffer used was 30 mM PIPES, 150 mM NaCl, pH 6.8. Kinetic parameters were determined spectrophotometrically by following the oxidation of NADH to NAD^+ at 340 nm (ε=6.3 nM^−1 cm^−1). Trans-2-dodecenoyl-CoA (DD-CoA) was used as a substrate. Two sets of conditions were used for the IC50 determinations.
For inhibitors with IC50 values above 0.2 μM, reaction mixtures contained 250 μM NADH, 74 nM InhA, and 25 μM DD-CoA. […] In each case, the inhibitor concentration was varied over the range of 0-200 μM.

[1] = tested on: Mycobacterium tuberculosis strain H37Rv; assay: MIC99 microplate dilution growth inhibition; format: cell-based; conditions: M. tuberculosis H37Rv, 7H9 broth, 37° C., 3-5 days, lowest concentration inhibiting visible growth
[2] = InhA, 250 μM NADH, DD-CoA substrate, 25° C., pH 6.8, read-out: IC50

Chain of InhA (P9WGR1 whole entry, looked up): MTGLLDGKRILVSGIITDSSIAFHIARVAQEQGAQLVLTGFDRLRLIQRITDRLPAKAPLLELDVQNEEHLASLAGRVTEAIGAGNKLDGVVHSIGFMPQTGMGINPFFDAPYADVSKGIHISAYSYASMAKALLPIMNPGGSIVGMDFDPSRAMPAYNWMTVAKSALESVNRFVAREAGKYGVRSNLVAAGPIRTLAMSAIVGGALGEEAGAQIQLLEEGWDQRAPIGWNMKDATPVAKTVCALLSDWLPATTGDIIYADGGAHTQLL

**Q.** Which IC50 (InhA; [2]) does the source give for `CCCCCCCCc1ccc(Oc2ccccc2)c(O)c1` [-(n-C8H17), 5-octyl-2-phenoxyphenol] here?
**A.** 5 nM

**Q.** With `CCCCCCc1ccc(Oc2ccccc2)c(O)c1` [-(n-C6H13), 5-hexyl-2-phenoxyphenol] as the compound, how does the IC50 (InhA) read?
**A.** 10 nM

**Q.** What about the MIC99 [1] of the same compound?
**A.** 0.93 µM (≈ 0.251 µg/mL)

**Q.** For `CCCCc1ccc(Oc2ccccc2)c(O)c1` [-(n-C4H9), 5-butyl-2-phenoxyphenol], which IC50 (InhA; [2]) is on record?
**A.** 80 nM

**Q.** What about the MIC99 [1] of the same compound?
**A.** 0.93 µM (≈ 0.225 µg/mL)

**Q.** For `CCCCCc1ccc(Oc2ccccc2)c(O)c1` [-(n-C5H11), 5-pentyl-2-phenoxyphenol], which IC50 (InhA; [2]) is on record?
**A.** 17 nM

**Q.** And the MIC99 [1]?
**A.** 0.93 µM (≈ 0.238 µg/mL)

**Q.** Which IC50 (InhA; [2]) does the source give for `CCc1ccc(Oc2ccccc2)c(O)c1` [—C2H5, 5-ethyl-2-phenoxyphenol] here?
**A.** 2000 nM

**Q.** What about the MIC99 [1] of the same compound?
**A.** 3.75 µM (≈ 0.803 µg/mL)
